Measurements taken from PMC3139667, “A Screen against Leishmania Intracellular Amastigotes: Comparison to a Promastigote Screen and Identification of a Host Cell-Specific Hit” (PLoS Neglected Tropical Diseases, 2011).
Read-outs that look alike come from different tables or passages of the source.

Columns and labels:
[1] = tested on: L. donovani promastigotes; test: Promastigote high-throughput ATP-bioluminescence assay; type: cell-based, Leishmania donovani; settings: read-out: GI50 Promastigote
Method: L. donovani promastigotes from an exponentially growing culture were diluted to 10^6/ml in RPMI containing 10% FBS and 10% BHT. The diluted culture (99 µl/well) was dispensed in sterile 96-well flat white opaque assay plates (Greiner Bio-One) using a WellMate multichannel dispenser (Matrix). 1 µl of 1 mM test compound dissolved in DMSO was added to the plates for a final concentration of 10 µM compound and 1% DMSO. Amphotericin B was added as a positive control (final concentration 2 µM, 1% DMSO) and as a negative control, 1 µl DMSO was added (1% final concentration). Compounds and controls were added to the assay plate with the robotic dispenser Biomek FXp liquid handler (Beckman Coulter). Promastigotes were incubated with the compounds for 72 h at 27°C. The parasites were then lysed by adding 50 µl of CellTiter-Glo (Promega) and placed on an orbital shaker for 5 min at room temperature. After lysis, the resulting ATP-bioluminescence was measured using the Analyst HT plate reader (Molecular Devices). Percentage inhibition of parasite growth was calculated for each well as [1-(RLUx-RLU^+)/(RLU^--RLU^+)]*100 where RLUx, RLU^+ and RLU^- are respectively the Relative Light Units for each well, positive (amphotericin B) and negative (DMSO) controls. A screening window coefficient, denoted Z' factor, was used to evaluate the performance of the assay. The Z' factor, calculated as 1-(3σc++3σc−)/(µc+−µc−) where σc+, σc−, µc+ and µc− are respectively the standard deviation and mean values of positive and negative controls, is reflective of the assay signal dynamic range and the data variation associated with signal measurement. […] GI50 curve fitting was carried out using GraphPad Prism 4 Software (GraphPad Software Inc., San Diego, CA).

[2] = tested on: L. donovani axenic amastigotes; test: Dose response study against axenic amastigotes (CellTiter-Glo); type: cell-based, Leishmania donovani; settings: read-out: GI50 Axenic amastigote
Method: L. donovani axenic amastigotes (5×10^5 cells/ml in axenic amastigote media) were dispensed in sterile 96-well flat white opaque assay plates (Greiner Bio-One) using a WellMate multichannel dispenser (Matrix). […] 1% DMSO and amphotericin B (2 µM, 1% DMSO final concentration) were added as negative and positive controls respectively. Axenic amastigotes were incubated with the compounds for 72 h at 37°C with 5% CO2. Parasite viability was then measured using CellTiter-Glo as described above.

[3] = tested on: L. donovani intracellular amastigotes; test: Intracellular amastigote high-throughput image-based assay in infected THP-1 macrophages; type: cell-based, Leishmania donovani; settings: for GI50: read-out: GI50 Intracellular amastigote
Method: (§1) Sterile, black, 96-well, clear bottom plates (Greiner Bio-One) were seeded with exponentially growing THP-1 (5×10^5cells/ml). THP-1 were treated with 0.1 µM phorbol myristate acetate (PMA, Sigma) at 37°C for 48 h to achieve differentiation into adherent, non-dividing macrophages. Maturation of THP-1 cells towards monocyte-macrophage like cells is essential to avoid parasitized cells being overgrown by replicating cells. After activation by PMA, cells were washed and incubated with complete RPMI medium containing stationary phase L. donovani promastigotes at a macrophage/promastigote ratio of 1/15. After 4 h incubation at 37°C, non-internalized promastigotes were removed by 2–3 successive washes with RPMI containing 5% FBS and 5% horse serum. Test compounds (10 µM), positive control (2 µM amphotericin B) or negative control (1% DMSO) were then added to the cultures using a Biomek FXp liquid handler (Beckman Coulter). Cultures were incubated at 37°C for 72 h. Cells were then washed with phosphate-buffered saline (PBS), fixed for 30 minutes with 4% formaldehyde, rinsed again with PBS, stained for 2 h with 4′,6′-diamidino-2-phenylindole (DAPI 300 nM) and finally washed with PBS. […] Images were acquired with an INCell Analyzer 1000 automated epi-fluorescent microscope (G.E. Healthcare). The excitation and emission filters used to detect DAPI were 350/50 nm and 460/40 nm respectively. Eight image fields were acquired per well with a 20X objective. The proprietary INCell Developer Toolbox 1.7 software was used for image analysis. Segmentation parameters were set to identify host nuclei with a minimum area of 250 µm^2 and parasite kinetoplast with an average area of 1 µm^2. The intensity of parasite nucleus was too low to be detected with a 20X objective. A border, representing the boundary of the cell, was drawn around the nucleus (total area between 700 and 2000 µm^2). Only parasites found within this area were included in the calculation to eliminate extracellular parasites. False positive parasite detection in the nucleus was also excluded from the calculation. Host cell nuclei and parasite kinetoplasts were counted and the ratio of parasites DNA to host nuclei was selected as the measurement output. Percentage inhibition of parasite growth was calculated as [1-(P/hcx-P/hc^+)/(P/hc^−-P/hc^+)]*100 where P/hcx, P/hc^+ and P/hc^− are parasite per host cell ratio for every well, positive control (amphotericin B) and negative control (DMSO) respectively. Calculation of Z' factor and GI50 curve fitting were carried out as described above.

THP-1 = test: Host cell toxicity: THP-1 host nuclei counts in the image-based assay; settings: for GI50: read-out: GI50 THP-1; for Selectivity: ratio between parasite GI50 and THP-1 GI50
Method: as §1

[4] = Leishmania donovani, 72 h at 27°C, CellTiter-Glo
[5] = Leishmania donovani, 72 h at 37°C, CellTiter-Glo
[6] = Leishmania donovani, THP-1, 72 h, L. donovani in THP-1, 72 h, parasites per host cell
[7] = ratio between promastigote GI50 and intracellular amastigote GI50, >2 more active against intracellular amastigote, <0.4 more active against promastigotes
[8] = Leishmania donovani, THP-1, 72 h
[9] = L. donovani in THP-1, 72 h, parasites per host cell
[10] = PMA-differentiated infected THP-1, 72 h, host nuclei count

| SMILES | GI50 [1, 4] | GI50 [2, 5] | GI50 [3, 6] | Specificity [3, 7] | GI50 (THP-1; Homo sapiens, THP-1, 72 h) | Selectivity (THP-1) | GI50 ([1]; Leishmania donovani, 72 h) | GI50 ([2]; Leishmania donovani, 72 h) | GI50 [3, 8] | GI50 ([1]; 72 h at 27°C, CellTiter-Glo) | GI50 ([2]; 72 h at 37°C, CellTiter-Glo) | GI50 [3, 9] | GI50 (THP-1; [10]) | Specificity [3] |
| --- | --- | --- | --- | --- | --- | --- | --- | --- | --- | --- | --- | --- | --- | --- |
| [H]/N=C(\N/C(=N/[H])NCCCCCCNC(=N)NC(=N)Nc1ccc(Cl)cc1)Nc1ccc(Cl)cc1 [Chlorhexidine] | 2.81 µM | 4.78 µM | 1.79 µM | 1.56 | > 16.5 µM | 9.27 | – | – | – | – | – | – | – | – |
| Cc1cc(C2CCCCC2)n(O)c(=O)c1 [Ciclopirox] | 15.2 µM | > 50 µM | 22 µM | 0.69 | 42 µM | 1.90 | – | – | – | – | – | – | – | – |
| Clc1ccccc1C(c1ccccc1)(c1ccccc1)n1ccnc1 [Clotrimazole] | 12.9 µM | 4.56 µM | 1.08 µM | 11.92 | > 16.5 µM | 15.32 | – | – | – | – | – | – | – | – |
| C[C@@H]1C[C@@H]([C@H](O)CC2CC(=O)NC(=O)C2)C(=O)[C@@H](C)C1 [Cycloheximide] | – | – | – | 2.55 | 21 µM | 18.13 | 2.95 µM | 0.39 µM | 1.15 µM | – | – | – | – | – |
| COc1cc2nc(N3CCN(C(=O)C4COc5ccccc5O4)CC3)nc(N)c2cc1OC (stereo not drawn) [Doxazocin] | – | – | – | 1.69 | – | 3.32 | – | – | – | 8.45 µM | > 16.5 µM | 5 µM | > 16.5 µM | – |
| CC[C@H]1CN2CCc3cc(OC)c(OC)cc3[C@@H]2C[C@@H]1C[C@H]1NCCc2cc(OC)c(OC)cc21 [Emetine] | 0.03 µM | 1.62 µM | 0.082 µM | – | 1.28 µM | – | – | – | – | – | – | – | – | – |
| Clc1cc(Cl)c(OCC#CI)cc1Cl [Haloprogin] | 1.05 µM | 0.56 µM | 6 µM | 0.17 | 20 µM | 19.04 | – | – | – | – | – | – | – | – |
| COC(=O)C[C@](O)(CCC(C)(C)O)C(=O)O[C@@H]1C(OC)=C[C@]23CCCN2CCc2cc4c(cc2[C@H]13)OCO4 [Harringtonin] | – | – | – | – | – | 0.02 | – | – | – | 16.6 µM | 10.6 µM | 4.89 µM | 0.1 µM | 3.39 |
| Oc1c(Cl)cc(Cl)c(Cl)c1Cc1c(O)c(Cl)cc(Cl)c1Cl [Hexachlorophene] | – | – | – | 3.49 | 16.5 µM | – | 15.9 µM | 14.8 µM | 4.54 µM | – | – | – | – | – |
| CCN(CCCCOC(=O)c1ccc(OC)c(OC)c1)C(C)Cc1ccc(OC)cc1 (stereo not drawn) [Mebeverine] | 6.91 µM | 2.36 µM | 8.5 µM | 0.81 | > 50 µM | 5.88 | – | – | – | – | – | – | – | – |
